Results taken from patent publication US20140094424A1, “MICROBICIDAL COMPOSITIONS AND METHODS OF PRODUCTION USE THEREOF” (priority 2011, published 2014).

Tests used:
[1] = system: Pseudomonas aeruginosa (AY); experiment: MBC (minimum bactericidal concentration) test in Wash NEXT reagent; assay type: cell-based
Procedure: (§1) The stock organisms were thawed and subbed prior to beginning the MBC test. Molds were subbed to SDA plates one week before, and the bacteria were subbed to TAT agar plates 24 hours prior to the start of the test. All plates were incubated at 32 degrees C.
(§2) Each bacterial organism was inoculated into 40 ml sterile saline in a centrifuge tube to create a density of MacFarland #1. Two serial dilutions of 1:100 were then made, resulting in 10^−2 and 10^−4 concentrations. Each dilution was vortexed before it was sampled, and sterile Eppendorf pipette tips were used to make each transfer. The 10^−4 dilution was spiral plated to yield the initial inoculum concentration.
(§3) MBC trays were set up with the prepared test reagent. Using a Matrix pipettor, 100 μl aliquots of reagent were distributed into the wells, diluting the amount of preservative from 100% to 10% increments, using unpreserved reagent as the diluent. In one row, 100% non-preserved reagent acted as a positive control and served as a benchmark for a full mat of growth. In well #12H, 100 μl unpreserved reagent was pipetted, and this well was not inoculated with organisms, as it served as the negative control. Once all of the trays were prepared, the prepared bacteria/mold suspensions were poured into the MBC inoculating trays. These were placed onto the reagent trays, and 0.01 ml inoculum was introduced into the 100 μl of reagent in each well.
(§4) This was done by dipping a sterile cotton swab into each well, and absorbing all of the liquid in the well. The swab was rolled onto a TAT agar plate ensuring that the entire swab touches the agar. Plates ware incubated at 32 degrees C. for 48 hours to 7 days, depending on the organism. Observations for growth were performed by a scoring matrix using + for a full mat, +/− for some growth, a numerical value for an actual colony count, and—for no growth.
(§5) Below are tables that contain the data obtained in Example 1. The MBC test is scored by (+) indicating a full grown mat of organisms, equivalent to the organisms in the unpreserved reagent. (+/−) indicates there is some kill evident disturbing that mat or bringing the quantities down to an almost countable level. An actual number is the actual number of colonies growing at that concentration of preservative. (−) indicates no growth found. The MBC trays were stored at room temperature for the entire test.
(§6) The materials and methods and analysis of the MBC test were the same as in Example 1.

Gram positive rods (S) = experiment: as above; assay type: cell-based
Procedure: as §1, §2, §3, §4, §5, §6

Measured: MBC test growth score

Cc1cc(NS(=O)(=O)c2ccc(N)cc2)no1 [Sulfamethoxazole, sulfamethoxazole]
+: [1]; 10% preservative, 8 hour | [1]; 10% preservative, 24 hour | [1]; 10% preservative, 48 hour | [1]; 10% preservative, 72 hour | [1]; 20% preservative, 8 hour | [1]; 20% preservative, 24 hour | [1]; 20% preservative, 48 hour | [1]; 20% preservative, 72 hour | [1]; 30% preservative, 8 hour | [1]; 30% preservative, 24 hour | [1]; 30% preservative, 48 hour | [1]; 30% preservative, 72 hour | [1]; 40% preservative, 8 hour | [1]; 40% preservative, 24 hour | [1]; 40% preservative, 48 hour | [1]; 40% preservative, 72 hour | [1]; 50% preservative, 8 hour | [1]; 50% preservative, 24 hour | [1]; 50% preservative, 48 hour | [1]; 50% preservative, 72 hour | [1]; 60% preservative, 8 hour | [1]; 60% preservative, 24 hour | [1]; 60% preservative, 48 hour | [1]; 60% preservative, 72 hour | [1]; 70% preservative, 8 hour | [1]; 70% preservative, 24 hour | [1]; 70% preservative, 48 hour | [1]; 70% preservative, 72 hour | [1]; 80% preservative, 8 hour | [1]; 80% preservative, 24 hour | [1]; 80% preservative, 48 hour | [1]; 80% preservative, 72 hour | [1]; 90% preservative, 8 hour | [1]; 90% preservative, 24 hour | [1]; 90% preservative, 48 hour | [1]; 90% preservative, 72 hour | [1]; 100% preservative, 8 hour | [1]; 100% preservative, 24 hour | [1]; 100% preservative, 48 hour | [1]; 100% preservative, 72 hour | Gram positive rods (S); 10% preservative, 8 hour | Gram positive rods (S); 10% preservative, 24 hour | Gram positive rods (S); 10% preservative, 48 hour | Gram positive rods (S); 10% preservative, 72 hour | Gram positive rods (S); 10% preservative, 7 day | Gram positive rods (S); 10% preservative, 14 day | Gram positive rods (S); 20% preservative, 8 hour | Gram positive rods (S); 20% preservative, 24 hour | Gram positive rods (S); 20% preservative, 48 hour | Gram positive rods (S); 20% preservative, 72 hour | Gram positive rods (S); 20% preservative, 7 day | Gram positive rods (S); 20% preservative, 14 day | Gram positive rods (S); 30% preservative, 8 hour | Gram positive rods (S); 30% preservative, 24 hour | Gram positive rods (S); 30% preservative, 48 hour | Gram positive rods (S); 30% preservative, 72 hour | Gram positive rods (S); 30% preservative, 7 day | Gram positive rods (S); 30% preservative, 14 day | Gram positive rods (S); 40% preservative, 8 hour | Gram positive rods (S); 40% preservative, 24 hour | Gram positive rods (S); 40% preservative, 48 hour | Gram positive rods (S); 40% preservative, 72 hour | Gram positive rods (S); 40% preservative, 7 day | Gram positive rods (S); 40% preservative, 14 day | Gram positive rods (S); 50% preservative, 8 hour | Gram positive rods (S); 50% preservative, 24 hour | Gram positive rods (S); 50% preservative, 48 hour | Gram positive rods (S); 50% preservative, 72 hour | Gram positive rods (S); 50% preservative, 7 day | Gram positive rods (S); 50% preservative, 14 day | Gram positive rods (S); 60% preservative, 8 hour | Gram positive rods (S); 60% preservative, 24 hour | Gram positive rods (S); 60% preservative, 48 hour | Gram positive rods (S); 60% preservative, 72 hour | Gram positive rods (S); 60% preservative, 7 day | Gram positive rods (S); 60% preservative, 14 day | Gram positive rods (S); 70% preservative, 8 hour | Gram positive rods (S); 70% preservative, 24 hour | Gram positive rods (S); 70% preservative, 48 hour | Gram positive rods (S); 70% preservative, 72 hour | Gram positive rods (S); 70% preservative, 7 day | Gram positive rods (S); 70% preservative, 14 day | Gram positive rods (S); 80% preservative, 8 hour | Gram positive rods (S); 80% preservative, 24 hour | Gram positive rods (S); 80% preservative, 48 hour | Gram positive rods (S); 80% preservative, 72 hour | Gram positive rods (S); 80% preservative, 7 day | Gram positive rods (S); 80% preservative, 14 day | Gram positive rods (S); 90% preservative, 8 hour | Gram positive rods (S); 90% preservative, 24 hour | Gram positive rods (S); 90% preservative, 48 hour | Gram positive rods (S); 90% preservative, 72 hour | Gram positive rods (S); 90% preservative, 7 day | Gram positive rods (S); 90% preservative, 14 day | Gram positive rods (S); 100% preservative, 8 hour | Gram positive rods (S); 100% preservative, 24 hour | Gram positive rods (S); 100% preservative, 48 hour | Gram positive rods (S); 100% preservative, 72 hour | Gram positive rods (S); 100% preservative, 7 day | Gram positive rods (S); 100% preservative, 14 day
